Patent publication US20090137667A1, “Pesticide Delivery System” (priority 2006, published 2009)
Where two headings read alike, the source gives them in different places.

Assays:
[1] = log P measured by the procedure of Donovan and Pescatore, internally standardized with toluene and triphenylene; assay type: physicochemical
Description: Compositions of herbicides were prepared using melts of mixtures of nonionic block copolymer and ethoxylated surfactants. Specifically, tristyrylphenol etoxylate (Soprophor BSU, Rhodia) was used in combination with Pluronic P123 (PEO20-PPO69-PEO20). The list of the herbicides and corresponding log P values (the log P values were measured according procedure described by Donovan and Pescatore, J Chromatography A 2002, 952, 47-61) are presented in Table 22. All log P values were measured at pH 7, except for clethodim, measured at pH 2. First, a stock blend of Pluronic P123 and Soprophor BSU was prepared by melting together 50 g of Pluronic P123 with 50 g of Soprophor BSU at 70° C. to form a clear, homogeneous melt. Composition of the […]

[2] = Particle size of aqueous dispersions by dynamic light scattering; assay type: physicochemical; details: Table 14, microblend with Pluronic P123:Soprophor BSU 1:1, insecticide 4.5 mg/ml, after 2 hours, Nanotrac 250
Description: The suspensions were shaken for 40 h at room temperature followed by centrifugation for 10 min at 13,000 rpm. The concentration of Bifenthrin in the supernatants was determined by UV-spectroscopy. For this purpose, standard solutions containing from 0 to 0.58 mg/ml of Bifenthrin in ethanol were prepared using a stock solution of Bifenthrin in acetonitrile with concentration of 8.7 mg/ml. These solutions were used to obtain a calibration curve by measuring an absorbance at 260 nm using Perkin-Elmer Lambda 25 spectrophotometer. […]
Compositions of insecticides were prepared using melts of mixtures of nonionic block copolymer and ethoxylated surfactants. Specifically, tristyrylphenol etoxylate (Soprophor BSU, Rhodia) was used in combination with Pluronic P123 (PEO20-PPO69-PEO20). 250 mg of Pluronic P123 were mixed with 250 mg of Soprophor BSU, and 50 mg of fine powder of the insecticide, and were melted together for 1 hour. The composition of the copolymer/surfactant mixture was P123:Soprophor=1:1 by weight. The feeding copolymer/surfactant:insecticide ratio was 10:1. The melted compositions were cooled down to room temperature. […] 50 mg of the composition was rehydrated in 1 ml of water upon shaking for 1 hour. The total concentration of copolymer/surfactant components in the mixture was ca. 4.6%. The targeted content of insecticide in the microblend dispersion was 4.5 mg/ml.

[3] = Stability and appearance of aqueous dispersions on storage; assay type: physicochemical; details: Table 14, microblend with Pluronic P123:Soprophor BSU 1:1, storage at room temperature
[4] = Soil mobility by soil thin layer chromatography (s-TLC); assay type: physicochemical; details: Example 50, 14C-bifenthrin, 10% aqueous dispersions, water eluant
Description: The evaluation of the soil mobility of the bifenthrin microblends according to the invention was performed using soil thin layer chromatography (s-TLC). Air-dried greenhouse topsoil, sieved to pass through with a 250 μm sieve was used to prepare s-TLC plates. Thirty mL of distilled water was added to 60 g of the sieved soil and the mixture was thoroughly grounded until a smooth, moderately fluid slurry was obtained. The soil slurry was quickly spread evenly across a clean grooved glass plate. Plates contained 9×1 cm channels cut to a depth of 2 mm, with the channels spaced 1 cm apart. Plates were allowed to dry at room temperature over 24 hours. A horizontal line was scribed 12.5 cm above the plate base through the soil layer before the soil dried completely. Bifenthrin microblends used in these experiments were prepared using a bifenthrin sample spiked with ^14C-radiolabeled bifenthrin to achieve reasonable sensitivity. Aqueous dispersions of microblends with concentrations of 10% were used in these experiments. Aliquots of each radiolabeled microblend were spotted 1.5 cm above the plate base. ^14C-labeled sulfentrazone and suspension of ^14C-labeled bifenthrin were used as controls. […]
The s-TLC were then scanned for 2 hours using a Packard InstantImager™ TLC plate scanner. Rf values were determined from the images obtained using the following equation (1): […]

[5] = cited from earlier work; for Log P: as referred in The Pesticide Manual, 11th edition (Table 18)
[6] = pH 2, pH = 2, based on logP assigned to toluene 2.605 and triphenylene 6.266, read-out: logP, Average
[7] = pH 7, measured at pH 7 (Table 22), read-out: Log P
[8] = pH 7, pH = 7, based on logP assigned to toluene 2.605 and triphenylene 6.266, read-out: logP, Average
[9] = pH = 2, based on logP assigned to toluene 2.605 and triphenylene 6.266
[10] = pH = 7, based on logP assigned to toluene 2.605 and triphenylene 6.266

CSC(=O)c1c(C(F)F)nc(C(F)(F)F)c(C(=O)SC)c1CC(C)C [Dithiopyr]
chromatographic logP [1, 6]: 4.32 | chromatographic logP [1, 7]: 4.28 | chromatographic logP [1, 8]: 4.28

CCCCOC(=O)C(C)Oc1ccc(Oc2ccc(C(F)(F)F)cn2)cc1 (centres unmarked) [Fluazifop-butyl]
chromatographic logP ([1]; pH 2, logP, Average): 4.44 | chromatographic logP ([1]; pH 7, Log P): 4.42 | chromatographic logP ([1]; pH 7, logP, Average): 4.42

N#Cc1nn(-c2c(Cl)cc(C(F)(F)F)cc2Cl)c(N)c1[S+]([O-])C(F)(F)F (centres unmarked) [Fipronil]
Particle size (nm) [2]: 13 nm | Dispersion appearance in 24 hours [3]: clear

Abamectin
Particle size (nm) [2]: 13 nm | Dispersion appearance in 24 hours [3]: clear

CC(C)(C)C(O)(CCc1ccc(Cl)cc1)Cn1cncn1 (centres unmarked) [Tebuconazole]
chromatographic logP [1, 6]: 3.44 | chromatographic logP [1, 8]: 3.49

Cc1c(COC(=O)[C@@H]2[C@H](/C=C(\Cl)C(F)(F)F)C2(C)C)cccc1-c1ccccc1 (racemic) [Bifenthrin]
Rf [4]: 0.00 | Particle size (nm) [2]: 14 nm | Dispersion appearance in 24 hours [3]: clear | n-octanol partition coefficient, logP ([5]; crude Bifenthrin): > 6

CON(C)C(=O)Nc1ccc(Cl)c(Cl)c1 [Linuron]
Log P [5]: 3.00

CO/C=C(/C(=O)OC)c1ccccc1Oc1cc(Oc2ccccc2C#N)ncn1 [Azoxystrobin]
logP, Average [1, 9]: 3.074 | logP, Average [1, 10]: 3.050

Cc1ccc(N(SC(F)(Cl)Cl)S(=O)(=O)N(C)C)cc1 [Tolyfluanid]
logP, Average [1, 9]: 3.934 | logP, Average [1, 10]: 3.930

CC1(C)C(C=C(Cl)Cl)C1C(=O)OC(C#N)c1cccc(Oc2ccccc2)c1 (centres unmarked) [Cypermethrin]
Particle size (nm) [2]: 14 nm | Dispersion appearance in 24 hours [3]: clear

O=[N+]([O-])c1cc(C(F)(F)F)c(Cl)c([N+](=O)[O-])c1Nc1ncc(C(F)(F)F)cc1Cl [Fluazinam]
chromatographic logP [1, 6]: 5.03 | chromatographic logP [1, 8]: 4.72

COP(=S)(OC)Oc1c(Cl)cc(C)cc1Cl [Tolclofos-methyl]
chromatographic logP ([1]; pH 2, read-out: logP, Average): 4.42 | chromatographic logP ([1]; pH = 7, based on logP assigned to toluene 2.605 and triphenylene 6.266, read-out: logP, Average): 4.42

CCOC(=O)C(Cl)Cc1cc(-n2nc(C)n(C(F)F)c2=O)c(F)cc1Cl (centres unmarked) [Carfentrazone-ethyl]
chromatographic logP [1, 6]: 3.99 | chromatographic logP [1, 8]: 4.02 | Log P [5]: 3.36

OC(Cn1cncn1)(c1ccc(F)cc1)c1ccccc1F (centres unmarked) [Flutriafol]
chromatographic logP ([1]; pH 2, logP, Average): 2.12 | chromatographic logP ([1]; pH 7, logP, Average): 2.04

CC1(C)CON(Cc2ccccc2Cl)C1=O [Clomazone]
Log P [5]: 2.5

Trisulfuron-methyl
logP, Average [1, 9]: 3.542 | logP, Average [1, 10]: 0.510

COC[C@H](C)N(C(=O)CCl)c1c(C)csc1C [Dimethenamid-P]
Log P [5]: 2.05

FC(F)(F)c1ccc(OCCCOc2c(Cl)cc(OCC=C(Cl)Cl)cc2Cl)nc1 [Pyridalyl]
Particle size (nm) [2]: 14 nm | Dispersion appearance in 24 hours [3]: clear

CCCSP(=O)(OCC)Oc1ccc(Br)cc1Cl (centres unmarked) [Profenofos]
Particle size (nm) [2]: 13 nm | Dispersion appearance in 24 hours [3]: clear

CCC(CC)Nc1c([N+](=O)[O-])cc(C)c(C)c1[N+](=O)[O-] [Prowl]
logP, Average [1, 9]: 5.108 | logP, Average [1, 10]: 5.101

Dinocap
Log P ([1]; measured at pH 7 (Table 22)): 5.43 | logP, Average [1, 9]: 5.457 | logP, Average [1, 10]: 5.428

N#Cc1c(Cl)c(Cl)c(Cl)c(C#N)c1Cl [Chlorthalonil]
logP, Average [1, 9]: 4.357 | logP, Average [1, 10]: 4.234

CCCN(CCC)c1c([N+](=O)[O-])cc(C(F)(F)F)c(N)c1[N+](=O)[O-] [Prodiamine]
Log P [5]: 4.10

Cc1nn(-c2cc(NS(C)(=O)=O)c(Cl)cc2Cl)c(=O)n1C(F)F [Sulfentrazone]
Rf [4]: 1.0

CCC(CC)Nc1c([N+](=O)[O-])cc(C)c(C)c1[N+](=O)[O-] [Pendimethalin]
Log P [5]: 5.18

CCCN(CCC)c1c([N+](=O)[O-])cc(C(F)(F)F)cc1[N+](=O)[O-] [Trifluran]
chromatographic logP [1, 7]: 5.08 | logP, Average [1, 9]: 5.108 | logP, Average [1, 10]: 5.084

O=[N+]([O-])c1c(Cl)c(Cl)c(Cl)c(Cl)c1Cl [Pentachloronitrobenzene]
chromatographic logP [1, 6]: 5.39 | chromatographic logP [1, 8]: 5.34

O=C(Nc1ccc(F)cc1F)c1cccnc1Oc1cccc(C(F)(F)F)c1 [Diflufenican]
chromatographic logP [1, 6]: 4.81 | chromatographic logP [1, 7]: 4.76 | chromatographic logP [1, 8]: 4.76

N#CC(CCc1ccc(Cl)cc1)(Cn1cncn1)c1ccccc1 (centres unmarked) [Febenuconazole]
logP, Average [1, 9]: 3.716 | logP, Average [1, 10]: 3.730

CCCCC(O)(Cn1cncn1)c1ccc(Cl)cc1Cl (centres unmarked) [Hexaconazole]
chromatographic logP ([1]; pH 2, logP, Average): 3.35 | chromatographic logP ([1]; pH 7, logP, Average): 3.31

C#CCOC(=O)[C@@H](C)Oc1ccc(Oc2ncc(Cl)cc2F)cc1 [Clodinofop-Propargyl]
logP, Average [1, 9]: 4.519 | logP, Average [1, 10]: 4.522

Spinosad
Particle size (nm) [2]: 13 nm | Dispersion appearance in 24 hours [3]: clear

CCSC(C)CC1CC(=O)C(/C(CC)=N/OC/C=C/Cl)=C(O)C1 (centres unmarked) [Clethodim]
chromatographic logP ([1]; pH 2, measured at pH 2 (Table 22), read-out: Log P): 4.24 | chromatographic logP [1, 6]: 4.25 | chromatographic logP [1, 8]: 0.813

CCCCC(C#N)(Cn1cncn1)c1ccc(Cl)cc1 (centres unmarked) [Myclobutanil]
chromatographic logP [1, 6]: 2.44 | chromatographic logP [1, 8]: 2.8

CCCC1COC(Cn2cncn2)(c2ccc(Cl)cc2Cl)O1 (centres unmarked) [Propiconazole]
chromatographic logP [1, 6]: 3.3 | chromatographic logP [1, 8]: 3.29

COC(=O)N(OC)c1ccccc1COc1ccn(-c2ccc(Cl)cc2)n1 [Pyraclostrobin]
chromatographic logP [1, 6]: 4.53 | chromatographic logP [1, 8]: 4.49

CCCCCCCC(=O)Oc1c(I)cc(C#N)cc1I [Ioxynil Octanoate]
chromatographic logP [1, 6]: 5.67 | chromatographic logP [1, 7]: 5.6 | chromatographic logP [1, 8]: 5.6

CCCCOCN(C(=O)CCl)c1c(CC)cccc1CC [Butachlor]
chromatographic logP ([1]; pH 2, logP, Average): 4.12 | chromatographic logP ([1]; pH 7, Log P): 4.15 | chromatographic logP ([1]; pH 7, logP, Average): 4.15

CCCOC/C(=N\c1ccc(Cl)cc1C(F)(F)F)n1ccnc1 [Triflumizole]
chromatographic logP ([1]; pH 2, logP, Average): 2.6 | chromatographic logP [1, 8]: 3.89
